ChEMBL document CHEMBL4651402, “Screening of ~5500 FDA-approved drugs and clinical candidates for anti-SARS-CoV-2 activity” (2021)

System: SARS-CoV-2
Experiment: microbe, parasite or virus in culture
Conditions: Severe acute respiratory syndrome coronavirus 2, Vero C1008, 48 h

Row | SMILES | IC50 [µM] | IC50 (read-out: pIC50 (converted)) [µM]
1 | CNC(C)CCC=C(C)C (configuration not stated) [ISOMETHEPTENE] | > 20 | > 20
2 | CCOC(=O)C(CC)(C(=O)NCCN(CC)CC)c1ccccc1 (configuration not stated) [FENALAMIDE] | > 20 | > 20
3 | CC1=C(C)C(=O)C(C(CCCCCC(=O)O)c2ccccc2)=C(C)C1=O (configuration not stated) [SERATRODAST] | > 20 | > 20
4 | CC[C@@H](O)C(C[C@@H](C)N(C)C)(c1ccccc1)c1ccccc1 [ALPHAMETHADOL] | > 20 | > 20
5 | CCCCCCCC/C=C\CCCCCCCC(=O)O [OLEIC ACID] | > 20 | > 20
6 | CC(CCc1ccccc1)NC(C)C(O)c1ccc(O)cc1 (configuration not stated) [NYLIDRIN] | > 20 | > 20
7 | C[C@@H](CO)NC(=O)[C@@H]1C=C2c3cccc4[nH]cc(c34)C[C@H]2N(C)C1 [ERGONOVINE] | > 20 | > 20
8 | C/N=C(/NC#N)NCCSCc1csc(NC(=N)N)n1 [TIOTIDINE] | > 20 | > 20
9 | Nc1ccc(S(=O)(=O)Nc2nccs2)cc1 [SULFATHIAZOLE] | > 20 | > 20
10 | C=C1c2c(Cl)ccc(O)c2C(=O)C2=C(O)[C@]3(O)C(=O)C(C(N)=O)=C(O)[C@@H](N(C)C)[C@@H]3[C@@H](O)[C@H]12 [MECLOCYCLINE] | > 20 | > 20
11 | CN1C(=O)CC[C@H]1c1cccnc1 [COTININE] | > 20 | > 20
12 | CNC[C@H](O)c1cccc(O)c1 [PHENYLEPHRINE] | > 20 | > 20
13 | C[C@@H]1C[C@H]2[C@@H]3C[C@H](F)C4=CC(=O)C=C[C@]4(C)[C@@]3(F)[C@@H](O)C[C@]2(C)[C@@]1(O)C(=O)CO [FLUMETHASONE] | > 20 | > 20
14 | Cc1ccccc1OCC(O)CO (configuration not stated) [MEPHENESIN] | > 20 | > 20
15 | CN(C)C1CCc2[nH]c3c(F)cc(F)cc3c2C1 (configuration not stated) [FLUCINDOLE] | > 20 | > 20
16 | CC(C)CN(C[C@@H](O)[C@H](Cc1ccccc1)NC(=O)[C@H](CC(N)=O)NC(=O)c1ccc2ccccc2n1)C(=O)NC(C)(C)C | > 20 | > 20
17 | CC(C)OC(=O)[C@H](C)N[P@](=O)(OC[C@@]1(F)O[C@@H](n2ccc(=O)[nH]c2=O)[C@](C)(O)[C@@H]1O)Oc1ccccc1 [ADAFOSBUVIR] | > 20 | > 20
18 | CC(=O)OC(C)C(=O)OCC[N+](C)(C)C (configuration not stated) [ACLATONIUM] | > 20 | > 20
19 | O=C(O)CC(=O)O [MALONIC ACID] | > 20 | > 20
20 | CC(C)OC(=O)[C@H](C)N[P@](=S)(OC[C@H]1O[C@@H](n2ccc(=O)[nH]c2=O)[C@](C)(O)[C@@H]1O)Oc1ccccc1 | > 20 | > 20
21 | COc1ccccc1OC(=O)C(C)c1ccc(CC(C)C)cc1 (configuration not stated) | > 20 | > 20

Row | SMILES | IC50 [µM] | IC50 (read-out: pIC50 (converted)) [µM]
22 | CCCCCC(O)c1cccc(OCc2ccc3ccccc3n2)c1 (configuration not stated) [REV-5901] | > 20 | > 20
23 | Cc1nnc2n1-c1ccc(Cl)cc1C(c1ccccc1)=NC2 [ALPRAZOLAM] | > 20 | > 20
24 | N#CC(c1ccc(F)cc1)c1c(Cl)cc(-n2ncc(=O)[nH]c2=O)cc1Cl (configuration not stated) [LETRAZURIL] | > 20 | > 20
25 | CC(=O)OC1CCC2C3CC[C@H]4CC(=O)C(C)=CC4(C)C3CCC12C (some centres not stated) | > 20 | > 20
26 | O=c1[nH]c(=O)n([C@H]2C[C@H](O)[C@@H](CO)O2)cc1/C=C/Br [BRIVUDINE] | > 20 | > 20
27 | Oc1c(Cl)cc(Cl)c2cccnc12 [CHLOROXINE] | > 20 | > 20
28 | CN1C(C)(C)CCCC1(C)C [PEMPIDINE] | > 20 | > 20
29 | CCOc1cc2ncc(C#N)c(Nc3ccc(F)c(Cl)c3)c2cc1NC(=O)/C=C/CN(C)C [PELITINIB] | > 20 | > 20
30 | Cn1ncc(-c2nc(N[C@H]3CC[C@H](N)CC3)ncc2Cl)c1CC1CC1 [BTX-A51] | > 20 | > 20
31 | CC1(C)CC[C@]2(C(=O)O)CC[C@]3(C)C(=CCC4[C@@]5(C)CC[C@@H](O)[C@@](C)(CO)C5CC[C@]43C)C2C1 (some centres not stated) | > 20 | > 20
32 | CC(C)CC(NC(=O)CCN)C(=O)O (racemic) | > 20 | > 20
33 | CCOP(=S)(OCC)Oc1ccc2c(C)c(Cl)c(=O)oc2c1 [COUMAPHOS] | > 20 | > 20
34 | CCC(CCC(C)C1CCC2C3CC[C@H]4CC(O)CCC4(C)C3CCC12C)C(C)C (some centres not stated) | > 20 | > 20
35 | Cc1ccc(C(C)C)c(O)c1 [THYMOL] | > 20 | > 20
36 | NC1(C(=O)O)CCCC1 [CYCLOLEUCINE] | > 20 | > 20
37 | COc1ccc2c(c1OC)C13CCN(C)C(C2)C1(O)CCC(O)C3 (configuration not stated) | > 20 | > 20
38 | CN(C)CC#CC=C1c2ccccc2C=Cc2ccccc21 [INTRIPTYLINE] | > 20 | > 20
39 | Cc1cccc(-c2[nH]c(CNc3ccccc3F)nc2-c2ccc3ncnn3c2)n1 [VACTOSERTIB] | > 20 | > 20
40 | Nc1ccc(S(=O)(=O)NC(=O)c2ccccc2)cc1 [SULFABENZAMIDE] | > 20 | > 20
41 | Cc1nc(Nc2ncc(C(=O)Nc3c(C)cccc3Cl)s2)cc(N2CCN(CCO)CC2)n1 [DASATINIB] | > 20 | > 20
42 | NC1CC1c1ccccc1 (configuration not stated) | > 20 | > 20

Row | SMILES | IC50 [µM] | IC50 (read-out: pIC50 (converted)) [µM]
43 | COc1ccc(C(=O)c2c(C)n(CCN3CCOCC3)c3ccccc23)cc1 [PRAVADOLINE] | > 20 | > 20
44 | OC[C@H]1O[C@@H](c2ccc(F)c(Cc3cc4ccccc4s3)c2)[C@H](O)[C@@H](O)[C@@H]1O [IPRAGLIFLOZIN] | > 20 | > 20
45 | COc1cc2c(cc1OC)[C@@H]1C(=O)c3ccc4c(c3O[C@@H]1CO2)C=CC(C)(C)O4 [DEGUELIN] | > 20 | > 20
46 | CCOc1cc(CC(=O)N[C@@H](CC(C)C)c2ccccc2N2CCCCC2)ccc1C(=O)O [REPAGLINIDE] | > 20 | > 20
47 | CC[C@H]1OC(=O)[C@H](C)[C@@H](O[C@H]2C[C@@](C)(OC)[C@@H](O)[C@H](C)O2)[C@H](C)[C@@H](O[C@@H]2O[C@H](C)C[C@H](N(C)C)[C@H]2OC(C)=O)[C@](C)(O)C[C@@H](C)C(=O)[C@H](C)[C@@H](O)[C@]1(C)O [2'-O-ACETYLERYTHROMYCIN A] | > 20 | > 20
48 | OC[C@H]1O[C@H](O[C@H]2O[C@H](CO)[C@@H](O)[C@H](O)[C@H]2O)[C@H](O)[C@@H](O)[C@@H]1O [TREHALOSE] | > 20 | > 20
49 | Cn1ncnc1[C@H]1c2n[nH]c(=O)c3cc(F)cc(c23)N[C@@H]1c1ccc(F)cc1 [TALAZOPARIB] | > 20 | > 20
50 | COc1cc(OC)c2c(=O)cc(-c3ccccc3)oc2c1 [CHRYSIN DIMETHYL ETHER] | > 20 | > 20
51 | O=C(NC1CCN(CCc2c[nH]c3ccccc23)CC1)c1ccccc1 [INDORAMIN] | > 20 | > 20
52 | CN1C(C(=O)Nc2nccs2)=C(O)c2ccccc2S1(=O)=O [SUDOXICAM] | > 20 | > 20
53 | Cc1oncc1C(=O)Nc1ccc(C(F)(F)F)cc1 [LEFLUNOMIDE] | > 20 | > 20
54 | Cc1[nH]c2ccccc2c1CN(C)C [2-METHYL GRAMINE] | > 20 | > 20
55 | C[C@@H](O)[C@H]1C(=O)N2C(C(=O)O)=C(S[C@@H]3CN[C@H](C(=O)N(C)C)C3)[C@H](C)[C@H]12 [MEROPENEM] | > 20 | > 20
56 | CC1CC(OC(=O)C(O)c2ccccc2)CC(C)(C)C1 (configuration not stated) [CYCLANDELATE] | > 20 | > 20
57 | Oc1ccc(/C=C/c2cc(O)cc(O)c2)cc1 [RESVERATROL] | > 20 | > 20
58 | c1ccc2c(c1)CN1CCCC1=N2 | > 20 | > 20
59 | C1=N/C2=N/c3ccc(OCCN4CCCC4)c(c3)COC/C=C/COCc3cccc(c3)C(=C1)N2 [PACRITINIB] | > 20 | > 20
60 | C[C@]12CC[C@H]3[C@@H](CCC4=CC(=O)CC[C@@H]43)[C@@H]1CC[C@@H]2O [NANDROLONE] | > 20 | > 20
61 | C[C@H](CCc1ccccc1)NC[C@H](O)c1ccc(O)c(C(N)=O)c1 [DILEVALOL] | > 20 | > 20
